Assay in all cases: DSF
Common to all, as to type: binding

One experiment deals with T1, MAP2K6 (Homo sapiens, UniProt P52564).
T1 construct: purchased in-house DSF panel (SGC Frankfurt)
T1 sequence (P52564 53-314): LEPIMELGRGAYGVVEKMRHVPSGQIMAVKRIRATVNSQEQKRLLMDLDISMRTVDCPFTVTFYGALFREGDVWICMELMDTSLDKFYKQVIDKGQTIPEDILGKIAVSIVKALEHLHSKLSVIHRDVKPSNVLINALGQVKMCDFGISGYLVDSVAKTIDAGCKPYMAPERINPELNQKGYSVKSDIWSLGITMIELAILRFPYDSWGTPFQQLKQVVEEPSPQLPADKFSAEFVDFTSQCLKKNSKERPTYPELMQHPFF

The target in another experiment is T2, AAK1 (Homo sapiens, UniProt Q2M2I8).
T2 construct: purchased in-house DSF panel (SGC Frankfurt)
T2 sequence (Q2M2I8 27-365): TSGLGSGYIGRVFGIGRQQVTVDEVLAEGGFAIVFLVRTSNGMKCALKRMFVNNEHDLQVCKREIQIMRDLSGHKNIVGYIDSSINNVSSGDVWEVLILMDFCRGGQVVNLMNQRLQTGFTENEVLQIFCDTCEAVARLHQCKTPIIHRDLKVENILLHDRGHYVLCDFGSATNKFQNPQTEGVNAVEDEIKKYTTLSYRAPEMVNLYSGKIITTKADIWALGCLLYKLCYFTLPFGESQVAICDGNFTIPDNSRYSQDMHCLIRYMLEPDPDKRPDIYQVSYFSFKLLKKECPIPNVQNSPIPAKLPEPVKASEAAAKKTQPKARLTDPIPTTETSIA

The target in another experiment is T3, AKT3 (Homo sapiens, UniProt Q9Y243).
T3 construct: purchased in-house DSF panel (SGC Frankfurt)
T3 sequence (Q9Y243 148-479): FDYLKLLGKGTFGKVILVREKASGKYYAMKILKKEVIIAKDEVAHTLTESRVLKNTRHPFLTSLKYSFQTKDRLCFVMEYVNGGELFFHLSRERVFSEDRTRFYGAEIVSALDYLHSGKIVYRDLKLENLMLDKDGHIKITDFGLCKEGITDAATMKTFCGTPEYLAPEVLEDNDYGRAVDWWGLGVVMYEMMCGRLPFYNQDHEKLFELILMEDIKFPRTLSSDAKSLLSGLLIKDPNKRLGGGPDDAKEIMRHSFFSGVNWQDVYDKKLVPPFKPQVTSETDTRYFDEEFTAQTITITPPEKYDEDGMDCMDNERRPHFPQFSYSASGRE

The target in another experiment is T4, CAMK2D (Homo sapiens, UniProt Q13557).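 Also: compound tested at 10 µM with 2 µM protein.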
T4 construct: purchased in-house DSF panel (SGC Frankfurt)
T4 sequence (Q13557 11-309): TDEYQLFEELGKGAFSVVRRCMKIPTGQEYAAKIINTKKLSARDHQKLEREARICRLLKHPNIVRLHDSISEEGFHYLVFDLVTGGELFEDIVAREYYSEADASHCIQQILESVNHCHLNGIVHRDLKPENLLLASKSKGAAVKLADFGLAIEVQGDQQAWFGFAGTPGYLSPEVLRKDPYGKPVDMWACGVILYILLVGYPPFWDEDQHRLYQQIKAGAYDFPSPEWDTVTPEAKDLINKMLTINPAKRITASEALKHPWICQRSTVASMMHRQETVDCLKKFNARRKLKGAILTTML

The target in a further experiment is T5, MARK3 (Homo sapiens, UniProt P27448).
T5 construct: purchased in-house DSF panel (SGC Frankfurt)
T5 sequence (P27448 whole entry): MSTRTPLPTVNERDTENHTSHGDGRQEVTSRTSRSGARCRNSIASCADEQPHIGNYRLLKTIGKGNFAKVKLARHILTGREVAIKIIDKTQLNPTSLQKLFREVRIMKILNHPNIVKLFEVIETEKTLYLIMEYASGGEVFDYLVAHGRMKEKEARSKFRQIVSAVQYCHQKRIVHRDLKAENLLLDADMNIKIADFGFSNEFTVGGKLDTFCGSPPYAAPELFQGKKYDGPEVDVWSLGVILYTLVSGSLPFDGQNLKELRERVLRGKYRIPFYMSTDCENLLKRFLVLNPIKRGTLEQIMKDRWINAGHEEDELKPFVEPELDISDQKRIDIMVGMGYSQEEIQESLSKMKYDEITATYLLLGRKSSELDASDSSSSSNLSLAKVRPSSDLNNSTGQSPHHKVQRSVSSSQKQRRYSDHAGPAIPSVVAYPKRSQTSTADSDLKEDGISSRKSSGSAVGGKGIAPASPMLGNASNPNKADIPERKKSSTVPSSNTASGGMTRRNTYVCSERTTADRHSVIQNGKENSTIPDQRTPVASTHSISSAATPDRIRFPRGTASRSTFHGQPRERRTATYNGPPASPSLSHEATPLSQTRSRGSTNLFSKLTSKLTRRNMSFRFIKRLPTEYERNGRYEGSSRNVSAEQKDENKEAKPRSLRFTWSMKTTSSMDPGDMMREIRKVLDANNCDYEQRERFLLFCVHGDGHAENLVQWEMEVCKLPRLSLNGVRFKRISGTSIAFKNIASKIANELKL

For a further experiment, the system named is RPS6KA6.
The target in the next experiment is T6, DAPK3 (Homo sapiens, UniProt O43293).
T6 construct: purchased in-house DSF panel (SGC Frankfurt)
T6 sequence (O43293 9-289): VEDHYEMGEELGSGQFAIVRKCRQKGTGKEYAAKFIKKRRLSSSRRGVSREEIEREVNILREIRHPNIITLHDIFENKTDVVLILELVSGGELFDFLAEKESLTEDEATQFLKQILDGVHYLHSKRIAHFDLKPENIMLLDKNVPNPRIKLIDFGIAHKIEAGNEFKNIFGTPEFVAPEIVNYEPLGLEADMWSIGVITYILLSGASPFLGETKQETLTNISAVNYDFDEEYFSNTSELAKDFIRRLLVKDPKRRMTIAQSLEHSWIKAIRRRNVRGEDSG

In another experiment the target is T7, DYRK2 (Homo sapiens, UniProt Q92630).
T7 construct: purchased in-house DSF panel (SGC Frankfurt)
T7 sequence (Q92630 1-601): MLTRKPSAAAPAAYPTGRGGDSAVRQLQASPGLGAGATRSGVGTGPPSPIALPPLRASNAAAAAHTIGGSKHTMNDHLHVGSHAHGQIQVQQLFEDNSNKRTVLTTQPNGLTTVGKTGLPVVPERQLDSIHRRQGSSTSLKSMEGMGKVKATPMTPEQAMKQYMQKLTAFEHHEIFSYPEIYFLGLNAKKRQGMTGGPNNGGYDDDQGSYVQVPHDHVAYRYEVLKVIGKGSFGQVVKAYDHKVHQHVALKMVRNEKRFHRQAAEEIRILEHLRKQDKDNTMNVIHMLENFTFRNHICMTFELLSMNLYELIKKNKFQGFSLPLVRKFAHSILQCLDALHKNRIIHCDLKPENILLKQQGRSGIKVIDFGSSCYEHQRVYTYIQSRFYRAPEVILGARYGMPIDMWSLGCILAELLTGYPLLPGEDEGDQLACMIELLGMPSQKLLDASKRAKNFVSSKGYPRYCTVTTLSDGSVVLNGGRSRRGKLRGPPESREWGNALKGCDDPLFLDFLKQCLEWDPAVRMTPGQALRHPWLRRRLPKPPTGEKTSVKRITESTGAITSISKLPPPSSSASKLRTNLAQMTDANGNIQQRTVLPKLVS

Another experiment deals with T8, STK3 (Homo sapiens, UniProt Q13188).
T8 construct: purchased in-house DSF panel (SGC Frankfurt)
T8 sequence (Q13188 16-313): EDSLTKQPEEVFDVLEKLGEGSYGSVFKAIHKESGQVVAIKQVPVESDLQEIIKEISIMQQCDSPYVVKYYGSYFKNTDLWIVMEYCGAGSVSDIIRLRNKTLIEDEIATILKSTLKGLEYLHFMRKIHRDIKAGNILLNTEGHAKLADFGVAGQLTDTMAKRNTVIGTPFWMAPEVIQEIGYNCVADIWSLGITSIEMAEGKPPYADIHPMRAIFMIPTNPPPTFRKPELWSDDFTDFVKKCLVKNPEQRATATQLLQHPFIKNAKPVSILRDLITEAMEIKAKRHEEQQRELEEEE

A further experiment deals with GSK3B (Homo sapiens, UniProt P49841). Details: purchased in-house DSF panel (SGC Frankfurt). The following applies: 10 μM compound. The procedure, abridged: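 Differential scanning fluorimetry follows unfolding of the protein through fluorescence of a dye that depends on folding state. The value is ΔTm, the melting-temperature shift between compound-free and compound-bound protein. Duplicate measurements.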
Chain of GSK3B (P49841 35-386): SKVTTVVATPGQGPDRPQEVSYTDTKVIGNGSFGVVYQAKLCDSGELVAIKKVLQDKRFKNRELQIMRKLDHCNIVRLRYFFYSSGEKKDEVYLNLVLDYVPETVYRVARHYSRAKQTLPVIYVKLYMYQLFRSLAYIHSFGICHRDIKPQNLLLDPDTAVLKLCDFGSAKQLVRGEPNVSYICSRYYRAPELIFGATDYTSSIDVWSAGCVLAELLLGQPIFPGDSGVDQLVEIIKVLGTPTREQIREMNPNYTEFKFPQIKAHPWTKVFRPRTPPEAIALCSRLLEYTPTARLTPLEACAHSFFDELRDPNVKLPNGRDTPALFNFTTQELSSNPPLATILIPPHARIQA

Another experiment deals with T9, OSR1 (Homo sapiens, UniProt O95747).
T9 construct: purchased in-house DSF panel (SGC Frankfurt)
T9 sequence (O95747 1-303): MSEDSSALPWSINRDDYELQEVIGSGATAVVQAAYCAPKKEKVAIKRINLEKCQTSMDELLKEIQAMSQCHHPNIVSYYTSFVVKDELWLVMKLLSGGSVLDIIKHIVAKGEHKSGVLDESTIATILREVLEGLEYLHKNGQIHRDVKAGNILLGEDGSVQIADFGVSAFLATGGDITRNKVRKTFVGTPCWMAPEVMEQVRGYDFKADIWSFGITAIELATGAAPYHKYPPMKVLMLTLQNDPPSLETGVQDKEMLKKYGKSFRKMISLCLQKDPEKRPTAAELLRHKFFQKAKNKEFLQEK
On the procedure: (§1) Measurements were performed in duplicates.

The target of a further experiment is T10, MERTK (Homo sapiens, UniProt Q12866).
T10 construct: purchased in-house DSF panel (SGC Frankfurt)
T10 sequence (Q12866 570-864): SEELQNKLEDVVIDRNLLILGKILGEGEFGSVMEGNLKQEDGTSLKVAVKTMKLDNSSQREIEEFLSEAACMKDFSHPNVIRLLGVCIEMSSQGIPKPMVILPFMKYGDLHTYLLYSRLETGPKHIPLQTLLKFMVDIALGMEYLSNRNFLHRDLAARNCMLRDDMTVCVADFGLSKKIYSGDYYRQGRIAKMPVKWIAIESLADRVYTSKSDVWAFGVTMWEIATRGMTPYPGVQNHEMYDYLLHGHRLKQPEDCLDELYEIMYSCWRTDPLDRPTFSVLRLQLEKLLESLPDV
On the procedure:
as §1

In a further experiment the target is T11, MAPK13 (Homo sapiens, UniProt O15264).
T11 construct: purchased in-house DSF panel (SGC Frankfurt)
T11 sequence (O15264 1-365): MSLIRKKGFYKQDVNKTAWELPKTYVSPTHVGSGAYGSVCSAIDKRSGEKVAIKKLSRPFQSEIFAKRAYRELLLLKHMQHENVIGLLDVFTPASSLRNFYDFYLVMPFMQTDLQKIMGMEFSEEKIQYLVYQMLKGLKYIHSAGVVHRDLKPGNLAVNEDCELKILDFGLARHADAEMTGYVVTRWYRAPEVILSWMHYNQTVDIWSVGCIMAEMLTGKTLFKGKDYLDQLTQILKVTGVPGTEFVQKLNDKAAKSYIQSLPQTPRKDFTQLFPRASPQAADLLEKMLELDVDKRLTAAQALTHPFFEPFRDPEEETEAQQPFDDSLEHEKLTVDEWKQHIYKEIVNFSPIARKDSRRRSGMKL
On the procedure: as §1

Procedure for AAK1: (§2) Recombinant protein kinase domains with a concentration of 2 μM were mixed with a 10 μM compound solution in DMSO, 20 mM HEPES, pH 7.5, and 500 mM NaCl. SYPRO Orange (5000×, Invitrogen) was added as a fluorescence probe (1 µl per mL). Subsequently, temperature-dependent protein unfolding profiles were measured, using the QuantStudio™ 5 realtime PCR machine (Thermo Fisher, Waltham, MA, USA). […] The temperature was raised with a step rate of 3 °C per minute. Data points were analyzed with the internal software (Thermal Shift SoftwareTM Version 1.4, Thermo Fisher) using the Boltzmann equation to determine the inflection point of the transition curve [56]. Differences in melting temperature are given as ΔTm values in °C. Measurements were performed in duplicates.
Procedure for AKT3: as §2
Procedure for CAMK2D: as §2
Procedure for DAPK3: as §2
Procedure for DYRK2: as §2
Procedure for MAP2K6: as §2
Procedure for MARK3: as §2
Procedure for RPS6KA6: as §2
Procedure for STK3: as §2

On to `COC(=O)c1cc(Nc2ccnc(NCCOCCNC(=O)OC(C)(C)C)n2)[nH]n1` [21d, methyl 5-((2-((2-(2-((tert-butoxycarbonyl)amino)ethoxy)ethyl)amino)pyrimidin-4-yl)amino)-1H-pyrazole-3-carboxylate], for which the “ΔTm MAP2K6” value at MAP2K6 is 1.4 °C. Moreover, the “ΔTm AAK1” value at AAK1 is 4.1 °C. On AKT3, the “ΔTm AKT3” value was found to be 0.3 °C. In addition, the “ΔTm CAMK2D” value on CAMK2D came out at 0.8 °C. Besides, the “ΔTm MARK3” value at MARK3 amounted to 2.5 °C. The “ΔTm RPS6KA6” value with RPS6KA6 was -0.3 °C. Further, on DAPK3, the “ΔTm DAPK3” value stood at 3.3 °C. Besides, the “ΔTm DYRK2” value on DYRK2 came out at 2.1 °C. For the same compound, the “ΔTm STK3” value at STK3 stood at 1.6 °C. In addition, the ΔTm (usually the change in melting temperature against a reference sample) at 10 µM at GSK3B is 6.2 °C. For the same compound, the “ΔTm OSR1” value on OSR1 came to 0.3 °C. Further, the “ΔTm MERTK” value at MERTK came out at 1.9 °C. Also, the “ΔTm MAPK13” value at MAPK13 was 0.5 °C.
Regarding `COC(=O)c1cc(Nc2ccnc(NCc3ccc(NC(=O)OC(C)(C)C)cc3)n2)[nH]n1` [21i, methyl 5-((2-((4-((tert-butoxycarbonyl)amino)benzyl)amino)pyrimidin-4-yl)amino)-1H-pyrazole-3-carboxylate], the “ΔTm MAP2K6” value at MAP2K6 is 5.4 °C. Also, the “ΔTm AAK1” value at AAK1 turned out to be 2.0 °C. Besides, the “ΔTm AKT3” value at AKT3 is -0.3 °C. The “ΔTm CAMK2D” value on CAMK2D was 0.6 °C. Besides, the “ΔTm MARK3” value on MARK3 was 1.5 °C. In addition, the “ΔTm RPS6KA6” value with RPS6KA6 is -0.3 °C. The “ΔTm DAPK3” value on DAPK3 is -0.6 °C. Moreover, the “ΔTm DYRK2” value on DYRK2 is 1.1 °C. The “ΔTm STK3” value on STK3 was found to be 1.2 °C. In addition, the shift in melting temperature (ΔTm) at 10 µM at GSK3B was 7.2 °C. In addition, the “ΔTm OSR1” value at OSR1 came out at 0.6 °C. Also, the “ΔTm MERTK” value on MERTK was -0.1 °C. Moreover, the “ΔTm MAPK13” value on MAPK13 was 1.0 °C.
Take `CC(C)OC(=O)c1cc(Nc2ccnc(NCc3ccc(NC(=O)OC(C)(C)C)cc3)n2)n[nH]1` [42d, isopropyl 3-((2-((4-((tert-butoxycarbonyl)amino)benzyl)amino)pyrimidin-4-yl)amino)-1H-pyrazole-5-carboxylate]: the “ΔTm MAP2K6” value on MAP2K6 came out at 5.0 °C. In addition, the “ΔTm AAK1” value at AAK1 is 0.5 °C. The “ΔTm AKT3” value on AKT3 was found to be 0.6 °C. For the same compound, the “ΔTm CAMK2D” value at CAMK2D is -0.4 °C. Moreover, on MARK3, the “ΔTm MARK3” value is -0.4 °C. Besides, the “ΔTm DAPK3” value on DAPK3 was determined as 0.1 °C. For the same compound, the “ΔTm DYRK2” value at DYRK2 is 0.5 °C. For the same compound, the “ΔTm STK3” value on STK3 is -1.0 °C. The ΔTm at 10 µM at GSK3B came out at 4.7 °C. The “ΔTm OSR1” value at OSR1 is -0.8 °C. The “ΔTm MERTK” value at MERTK was -0.8 °C. Moreover, the “ΔTm MAPK13” value on MAPK13 is 1.0 °C.
Take `CC(C)(C)OC(=O)Nc1ccc(CNc2nccc(Nc3cc(C(=O)OC(C)(C)C)[nH]n3)n2)cc1` [43d, tert-butyl 3-((2-((4-((tert-butoxycarbonyl)amino)benzyl)amino)pyrimidin-4-yl)amino)-1H-pyrazole-5-carboxylate]: the “ΔTm MAP2K6” value at MAP2K6 stood at 3.0 °C. The “ΔTm AAK1” value on AAK1 was found to be 1.0 °C. Also, the “ΔTm AKT3” value on AKT3 stood at 0.5 °C. Besides, on CAMK2D, the “ΔTm CAMK2D” value is -0.1 °C. Further, the “ΔTm MARK3” value at MARK3 is -0.5 °C. On DAPK3, the “ΔTm DAPK3” value is 0.3 °C. In addition, the “ΔTm DYRK2” value on DYRK2 was found to be 0.8 °C. For the same compound, the “ΔTm STK3” value on STK3 was found to be 0.3 °C. Besides, at GSK3B, the ΔTm at 10 µM was determined as 2.9 °C. Also, the “ΔTm OSR1” value on OSR1 was -0.4 °C. Further, the “ΔTm MERTK” value at MERTK was -0.8 °C. For the same compound, the “ΔTm MAPK13” value on MAPK13 came to 1.3 °C.
In the case of `N#CCc1ccc(Nc2nccc(Nc3cc(C4CC4)[nH]n3)n2)cc1` [compound 1, reference compound], the “ΔTm MAP2K6” value on MAP2K6 stood at 10.4 °C. The “ΔTm AAK1” value at AAK1 is 13.8 °C. Further, the “ΔTm CAMK2D” value at CAMK2D was determined as 4.5 °C. The “ΔTm MARK3” value at MARK3 was found to be 8.1 °C. In the experiment with RPS6KA6, the “ΔTm RPS6KA6” value was 0.4 °C. Besides, on DAPK3, the “ΔTm DAPK3” value worked out at 9.7 °C. Further, on DYRK2, the “ΔTm DYRK2” value was determined as 11.0 °C. Also, the “ΔTm STK3” value at STK3 came out at 11.6 °C. At GSK3B, the ΔTm at 10 µM was found to be 14 °C. In addition, the “ΔTm OSR1” value on OSR1 was 5.6 °C. For the same compound, the “ΔTm MERTK” value on MERTK amounted to 4.4 °C. In addition, the “ΔTm MAPK13” value at MAPK13 stood at 8.0 °C.
For `CN[C@@H]1C[C@H]2O[C@@](C)([C@@H]1OC)n1c3ccccc3c3c4c(c5c6ccccc6n2c5c31)C(=O)NC4` [staurosporine, reference compound], at STK3, the “ΔTm STK3” value was 16.6 °C. Besides, the “ΔTm OSR1” value on OSR1 worked out at 7.7 °C. In addition, the “ΔTm MERTK” value on MERTK came to 6.6 °C. Moreover, the “ΔTm MAPK13” value on MAPK13 stood at 7.5 °C.
